Experimental data from the NIST ThermoML archive (doi:10.1016/j.jct.2013.04.022).
Numbers after ± are expanded uncertainties.

Columns and labels:
[1] = mn = molality of the nth substance listed, in mol/kg; conditions: 298.15 K, 85.9 kPa, Liquid; for mass density: Vibrating tube method; for viscosity: Capillary tube (Ostwald / Ubbelohde) method
[2] = 298.15 K, 85.9 kPa, Liquid; for viscosity: Capillary tube (Ostwald / Ubbelohde) method; for mass density: Vibrating tube method
[3] = refractive index (Na D-line) (dimensionless); conditions: 298.15 K; 85.9 kPa; Liquid; Standard Abbe refractometry

CCCCn1cc[n+](C)c1.[Br-] [1-butyl-3-methylimidazolium bromide] + CC(=O)N(C)C
[1]
Conditions	mass density [kg/m3]
m1 = 0.0527	944.36 ± 0.21
m1 = 0.1475	946.97 ± 0.2
m1 = 0.1994	950.03 ± 0.2

CCCCn1cc[n+](C)c1.[Br-] [1-butyl-3-methylimidazolium bromide] + C[S+](C)[O-]
[1]
Conditions	mass density [kg/m3]
m1 = 0.0751	1099.03 ± 0.27
m1 = 0.0981	1099.68 ± 0.27
m1 = 0.1923	1103.73 ± 0.27

Oc1ccccc1C=Nc1ccccc1N=Cc1ccccc1O [2,2'-[1,2-phenylenebis(nitrilomethylidyne)]bis-phenol] + CC(=O)N(C)C
[1]
Conditions	mass density [kg/m3]	viscosity [mPa·s]
m1 = 0.0106	937.33 ± 0.21	0.954 ± 0.02
m1 = 0.0323	938.87 ± 0.21	0.975 ± 0.021
m1 = 0.0497	940.11 ± 0.21	0.992 ± 0.021
m1 = 0.0704	941.6 ± 0.2	1.012 ± 0.022
m1 = 0.0899	942.99 ± 0.2	1.031 ± 0.022
m1 = 0.1092	944.36 ± 0.2	1.049 ± 0.022
m1 = 0.129	945.78 ± 0.2	1.069 ± 0.023
m1 = 0.1492	947.22 ± 0.2	1.087 ± 0.023
m1 = 0.174	949.06 ± 0.2	–
m1 = 0.1742	–	1.011 ± 0.1

Oc1ccccc1C=Nc1ccccc1N=Cc1ccccc1O [2,2'-[1,2-phenylenebis(nitrilomethylidyne)]bis-phenol] + C[S+](C)[O-]
[1]
Conditions	mass density [kg/m3]	viscosity [mPa·s]
m1 = 0.0099	1095.61 ± 0.27	1.998 ± 0.043
m1 = 0.0307	1096.3 ± 0.27	2.041 ± 0.044
m1 = 0.0493	1096.92 ± 0.27	2.073 ± 0.044
m1 = 0.07	1097.62 ± 0.27	2.109 ± 0.045
m1 = 0.0911	1098.35 ± 0.27	2.151 ± 0.046
m1 = 0.1086	1098.95 ± 0.27	2.208 ± 0.047
m1 = 0.1311	1099.71 ± 0.27	2.229 ± 0.048
m1 = 0.1483	1100.31 ± 0.27	2.289 ± 0.049
m1 = 0.1717	1101.2 ± 0.27	2.333 ± 0.05

CC(=O)N(C)C [N,N-dimethylethanamide]
Conditions	mass density [kg/m3]	refractive index	viscosity [mPa·s]
[2]	936.57 ± 0.3	–	0.961 ± 0.021
[3]	–	1.436 ± 0.0007	–

C[S+](C)[O-] [dimethyl sulfoxide]
Conditions	mass density [kg/m3]	refractive index	viscosity [mPa·s]
[2]	1095.29 ± 0.4	–	1.867 ± 0.04
[3]	–	1.4762 ± 0.0007	–
